Three substances from US20030083484A1, “Antisense modulation of short heterodimer partner-1 expression” (priority 2001, published 2003) can be followed below.

The subject of data set [1] is mouse short heterodimer partner-1 mRNA. As to the kind of experiment: Dose-response study: inhibition of mouse short heterodimer partner-1 mRNA levels in primary hepatocyte cells, quantitative real-time PCR. The format is cell-based. As to conditions: averages from two experiments. As to the method:
(§1) Primary mouse hepatocytes were prepared from CD-1 mice purchased from Charles River Labs (Wilmington, Mass.) and were routinely cultured in Hepatoyte Attachment Media (Gibco) supplemented with 10% Fetal Bovine Serum (Gibco/Life Technologies, Gaithersburg, Md.), 250 nM dexamethasone (Sigma), and 10 nM bovine insulin (Sigma). Cells were seeded into 96-well plates (Falcon-Primaria #3872) at a density of 10000 cells/well for use in RT-PCR analysis.
(§2) Cells were harvested 16-24 hours after oligonucleotide treatment.
(§3) Vacuum was applied for 15 seconds. […] The elution step was repeated with an additional 60 μL water.
(§4) Total RNA is quantified using RiboGreen™ RNA quantification reagent from Molecular Probes.
(§5) Probes and primers to mouse short heterodimer partner-1 were designed to hybridize to a mouse short heterodimer partner-1 sequence, using published sequence information (GenBank accession number L75567, incorporated herein as SEQ ID NO: 10).
In accordance with the present invention, a subset of the antisense oligonucleotides in Example 16 were further investigated in dose-response studies. Treatment doses were 50, 150 and 300 nM.
A general note: In qPCR the cycle at which signal appears reflects the starting amount.

The test system is the same in data set [2]. As to the kind of experiment: Inhibition of mouse short heterodimer partner-1 mRNA levels in primary hepatocytes, quantitative real-time PCR. The class given is cell-based. Set-up: concentration or dose not given beside the values. As to conditions: averages from two experiments. On the procedure: as §1, §2, §3, §4, §5
All cytidine residues are 5-methylcytidines. […] Data are averages from two experiments. If present, “N.D.” indicates “no data”.

Strand notation (5' to 3'): a small letter for the sugar, then the base; units joined by * are phosphorothioate-linked, units joined directly phosphodiester-linked; [ ] holds rarer units or linkages, { } end groups; capitals alone tell only the bases. e = 2'-O-(2-methoxyethyl) (MOE); [5mC] = 5-methylcytosine; d = 2'-deoxy (DNA)

With “148286 (antisense eA*eG*eT*e[5mC]*eA*dT*d[5mC]*dA*dA*dG*dG*dG*d[5mC]*dT*dT*eG*e[5mC]*eT*eG*eG) [compound 148286]”, the “Percent Inhibition of mouse short heterodimer partner-1 mRNA levels” value (“Percent Inhibition” below) in data set [1] (50 nM oligonucleotide) came to 42%; in data set [1] (150 nM oligonucleotide) it was 58%; in data set [1] (300 nM oligonucleotide) it was 80%. The “% INHIB (inhibition of mouse short heterodimer partner-1 mRNA levels)” value (“% INHIB” below) in data set [2] was determined as 71%.
Regarding “148284 (antisense eG*eA*eG*eG*e[5mC]*dA*d[5mC]*d[5mC]*dA*dG*dA*d[5mC]*dT*d[5mC]*d[5mC]*eA*eT*eT*e[5mC]*e[5mC]) [compound 148284]”, the results for the “Percent Inhibition” value in data set [1] (50 nM oligonucleotide), in data set [1] (150 nM oligonucleotide) and in data set [1] (300 nM oligonucleotide) were 6%, 55% and 86%, respectively. For the same substance, in data set [2], the “% INHIB” value is 77%.
Turning to “148287 (antisense eG*eT*eT*e[5mC]*eT*dG*dT*dA*d[5mC]*dA*dA*dA*dG*dT*d[5mC]*eA*eG*eG*eA*eG) [compound 148287]”, the “Percent Inhibition” value in data set [1] (50 nM oligonucleotide) is 44%; in data set [1] (150 nM oligonucleotide) it was 71%; in data set [1] (300 nM oligonucleotide), 89%. Moreover, the “% INHIB” value in data set [2] came out at 74%.
